The numbers were not newly measured in patent US7279184B2, “Methods and compositions comprising Ilex” (HerbalScience, LLC, priority 2003, dated 2007), which cites them from elsewhere.

Each structure is given as a SMILES string.

For the molecule `Cn1cnc2c1c(=O)[nH]c(=O)n2C` [Theobromine, 3,7-dimethyl-xanthine], the half-life after ingestion entry is reported as “approximately 6 hours”.
